Source: publication PMC9133036 (Nature Communications, 2022)
Several values for one entry are separate records, joined by “and”; a condition that tells them apart may be missing. Identical values can stand only once.

What was measured:
OX2R T111S = molecular target: T1, OX2R T111S (Homo sapiens, UniProt O43614, T111S); assay: IP accumulation assay, OX2R T111S; type: cell-based
T1 construct: FLAG; expressed in transfected cells; host or cells: HEK293
T1 sequence (O43614 1-444 T111S): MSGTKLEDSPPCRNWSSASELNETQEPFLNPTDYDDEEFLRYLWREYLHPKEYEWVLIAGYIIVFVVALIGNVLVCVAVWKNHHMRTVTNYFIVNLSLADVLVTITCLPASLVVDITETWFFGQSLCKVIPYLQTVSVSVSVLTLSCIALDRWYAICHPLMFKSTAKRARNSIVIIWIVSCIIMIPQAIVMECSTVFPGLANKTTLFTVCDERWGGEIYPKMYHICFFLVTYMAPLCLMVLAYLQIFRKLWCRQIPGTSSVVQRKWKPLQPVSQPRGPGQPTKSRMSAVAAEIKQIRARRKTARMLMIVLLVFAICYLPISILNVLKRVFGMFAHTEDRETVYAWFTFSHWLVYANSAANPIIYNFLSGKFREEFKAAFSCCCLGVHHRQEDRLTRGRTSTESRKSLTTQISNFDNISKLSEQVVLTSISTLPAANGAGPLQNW
Source text: (§1) The IP assay was adapted from a prior precedent. HEK293 cells were maintained in DMEM-high glucose (Millipore Sigma) supplemented with 5% fetal bovine serum (Corning) and penicillin-streptomycin (Millipore Sigma). Receptor constructs used were the full-length wild-type (or mutant) human OX1R and OX2R sequences cloned into pCDNA3. To enhance the Emax in the IP assay, a plasmid encoding full-length human Gαq subunit[66] was co-transfected into HEK293 cells with plasmids encoding orexin receptor constructs using Lipofectamine 3000 (Thermo Fisher). 24 h after transfection, the cells were plated on poly-D-lysine coated (Millipore Sigma) tissue culture-treated 96 well white plates with clear bottoms (Perkin Elmer) at 30,000 cells per well in Inositol-free DMEM (MP Biomedicals) supplemented with 5% fetal bovine serum, 4 mM L-glutamine (Millipore Sigma), penicillin-streptomycin, and about 5 uCi (5 ul) per ml myo-[2-3H] inositol (Perkin Elmer). The following day, the media was replaced with agonists that were diluted in HBSS (Millipore Sigma) containing 10 mM lithium chloride (Millipore Sigma) and incubated at 37 °C for 45 min. Then agonists were removed and cells were lysed on ice for 30 min with 10 mM formic acid (Millipore Sigma). 1.25 mg of poly-lysine coated YSI SPA beads (Perkin Elmer) was added to each well. The plates were mixed on an orbital shaker for 30 min. The plates were read on a MicroBeta scintillation counter (Perkin Elmer) the following day. IP accumulation assays on different constructs were performed in n ≥ 3 independent experiments (each done in duplicate), where n is shown in Supplementary Table 2.

OX2R T135A = molecular target: T2, OX2R T135A (Homo sapiens, UniProt O43614, T135A); assay: IP accumulation assay, OX2R T135A; type: cell-based
T2 construct: FLAG; expressed in transfected cells; host or cells: HEK293
T2 sequence (O43614 whole entry T135A): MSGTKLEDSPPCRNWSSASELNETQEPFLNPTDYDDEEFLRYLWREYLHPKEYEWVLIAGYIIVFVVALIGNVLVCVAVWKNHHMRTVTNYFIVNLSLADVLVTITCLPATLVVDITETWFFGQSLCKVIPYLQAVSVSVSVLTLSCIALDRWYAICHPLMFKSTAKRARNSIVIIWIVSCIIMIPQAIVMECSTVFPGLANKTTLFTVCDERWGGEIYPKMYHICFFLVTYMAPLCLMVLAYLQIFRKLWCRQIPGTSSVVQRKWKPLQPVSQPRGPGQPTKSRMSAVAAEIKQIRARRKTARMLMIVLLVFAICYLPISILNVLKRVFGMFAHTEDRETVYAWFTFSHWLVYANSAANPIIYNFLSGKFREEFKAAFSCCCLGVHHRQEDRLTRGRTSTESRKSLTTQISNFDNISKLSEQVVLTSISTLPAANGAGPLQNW
Source text: as §1, with “1.25 mg of poly-lysine coated YSI SPA beads (Perkin Elmer) was added to each well. The plates were mixed on an orbital shaker for 30 min.” left out, “IP accumulation assays on different constructs were performed in n ≥ 3 independent experiments (each done in duplicate), where n is shown in Supplementary Table 2.” left out

OX1R A127T = molecular target: T3, OX1R A127T (Homo sapiens, UniProt O43613, A127T); assay: IP accumulation assay, OX1R A127T; type: cell-based
T3 construct: FLAG; expressed in transfected cells; host or cells: HEK293
T3 sequence (O43613 1-425 A127T): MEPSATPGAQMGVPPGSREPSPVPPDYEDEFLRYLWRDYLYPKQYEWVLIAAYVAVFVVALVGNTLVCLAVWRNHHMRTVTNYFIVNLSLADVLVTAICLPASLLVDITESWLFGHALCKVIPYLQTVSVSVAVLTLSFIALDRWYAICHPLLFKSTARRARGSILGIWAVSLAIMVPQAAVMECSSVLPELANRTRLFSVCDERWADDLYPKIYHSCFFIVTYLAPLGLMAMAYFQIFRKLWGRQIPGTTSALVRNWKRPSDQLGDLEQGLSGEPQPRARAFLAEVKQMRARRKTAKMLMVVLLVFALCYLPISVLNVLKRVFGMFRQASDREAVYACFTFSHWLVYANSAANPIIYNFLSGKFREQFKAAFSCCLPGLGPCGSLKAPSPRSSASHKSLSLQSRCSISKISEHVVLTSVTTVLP
Source text: as §1

OX2R Q187A = molecular target: T4, OX2R Q187A (Homo sapiens, UniProt O43614, Q187A); assay: β-arrestin PathHunter assay, OX2R Q187A; type: cell-based; details: β-arrestin recruitment
T4 construct: expressed in transfected cells; host or cells: CHO-K1 stably expressing EA β-arrestin2
T4 sequence (O43614 whole entry Q187A): as the sequence (O43614 whole entry T135A) above, with A135T, Q187A counted along it
Procedure: (§2) β-Arrestin recruitment activity was measured by using the PathHunter system (DiscoveRX) according to the manufacturer’s instruction. Receptor constructs used were the full-length wild-type (or mutant) human OX2R sequences cloned into pCMV-ProLink (DiscoveRX). CHO-K1 cells stably expressing EA β-arrestin2 (DiscoveRX) were plated on 384 well white plates (Thermo Fisher) at 4000 cells/well in HamF12 (Wako Pure Chemical Industries) supplemented with 10% fetal bovine serum (Corning) and penicillin-streptomycin (Wako Pure Chemical Industries) and incubated overnight at 37 °C under 5% CO2. Cells were transfected with plasmids encoding wild type or each mutant ProLink-tagged human OX2R using FuGENE HD (Promega). […] Detection reagent was added and incubated for 1 h at room temperature. Luminescent signal was detected using an EnVision plate reader (PerkinElmer). β-arrestin assays on different constructs were performed in two or three independent experiments (each done in quadruplicate). Dose response curves (shown in Supplementary Fig. 8) were fitted to the three-parameter model ‘log(agonist) vs response’ in GraphPad Prism to determine pEC50 values.

OX2R K327A = molecular target: T5, OX2R K327A (Homo sapiens, UniProt O43614, K327A); assay: β-arrestin PathHunter assay, OX2R K327A; type: cell-based; details: β-arrestin recruitment
T5 construct: expressed in transfected cells; host or cells: CHO-K1 stably expressing EA β-arrestin2
T5 sequence (O43614 whole entry K327A): as the sequence (O43614 whole entry T135A) above, with A135T, K327A counted along it
Procedure: as §2

OX2R H350A = molecular target: T6, OX2R H350A (Homo sapiens, UniProt O43614, H350A); assay: β-arrestin PathHunter assay, OX2R H350A; type: cell-based; details: β-arrestin recruitment
T6 construct: expressed in transfected cells; host or cells: CHO-K1 stably expressing EA β-arrestin2
T6 sequence (O43614 whole entry H350A): as the sequence (O43614 whole entry T135A) above, with A135T, H350A counted along it
Procedure: as §2

OX2R V353A = molecular target: T7, OX2R V353A (Homo sapiens, UniProt O43614, V353A); assay: β-arrestin PathHunter assay, OX2R V353A; type: cell-based; details: β-arrestin recruitment
T7 construct: expressed in transfected cells; host or cells: CHO-K1 cells stably expressing EA β-arrestin2 (DiscoveRX), transiently transfected with pCMV-ProLink OX2R
T7 sequence (O43614 whole entry V353A): as the sequence (O43614 whole entry T135A) above, with A135T, V353A counted along it
T7 sequence (P32121 whole entry partner): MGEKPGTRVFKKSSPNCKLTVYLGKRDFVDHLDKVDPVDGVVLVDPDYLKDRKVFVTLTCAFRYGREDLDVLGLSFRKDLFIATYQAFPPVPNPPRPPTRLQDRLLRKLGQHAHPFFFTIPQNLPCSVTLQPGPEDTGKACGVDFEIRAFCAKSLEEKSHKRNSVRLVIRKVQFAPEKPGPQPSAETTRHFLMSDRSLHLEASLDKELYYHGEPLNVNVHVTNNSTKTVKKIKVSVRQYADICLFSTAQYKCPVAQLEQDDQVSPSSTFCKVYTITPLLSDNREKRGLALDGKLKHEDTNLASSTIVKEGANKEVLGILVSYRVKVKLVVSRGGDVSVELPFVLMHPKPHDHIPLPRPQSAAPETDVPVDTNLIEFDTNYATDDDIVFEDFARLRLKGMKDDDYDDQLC
Procedure: as §2

wakefulness = details: subcutaneous delivery during the sleep period; cited from earlier work

COC(=O)N1CCC[C@H](NS(C)(=O)=O)[C@@H]1CO[C@H]1CC[C@@H](c2ccccc2)CC1 [TAK-925, methyl (2R,3S)−3-[(methylsulfonyl)amino]−2-{[(cis−4-phenylcyclohexyl)oxy]methyl}piperidine-1-carboxylate]
EC50 (OX2R T111S; IP accumulation): 0.23 µM | % IP accumulation (OX2R T111S; TAK-925 conc (log, M) -4.00, normalized to OX2R WT Emax): 70.98% and 87.26% and 72.84% | % IP accumulation (OX2R T111S; TAK-925 conc (log, M) -4.48): 81.25% and 84.62% and 46.26% | % IP accumulation (OX2R T111S; TAK-925 conc (log, M) -4.95): 89.34% and 80.76% and 67.67% | % IP accumulation (OX2R T111S; TAK-925 conc (log, M) -5.43): 71.72% and 74.73% and 72.02% | % IP accumulation (OX2R T111S; TAK-925 conc (log, M) -5.91): 64.42% and 69.82% and 64.34% | % IP accumulation (OX2R T111S; TAK-925 conc (log, M) -6.39): 51.66% and 41.45% and 43.47% | % IP accumulation (OX2R T111S; TAK-925 conc (log, M) -6.86): 34.40% and 35.79% and 28.55% | % IP accumulation (OX2R T111S; TAK-925 conc (log, M) -7.34): 18.97% and 17.10% and 14.95% | % IP accumulation (OX2R T111S; TAK-925 conc (log, M) -7.82): 8.44% and 12.15% and 9.41% | % IP accumulation (OX2R T111S; TAK-925 conc (log, M) -8.29): 4.76% and 0.00% and 2.26% | % IP accumulation (OX2R T111S; TAK-925 conc (log, M) -8.77): 0.00% and 8.93% | Emax (OX2R T111S; relative to OX2R WT/TAK-925): 76 | EC50 (OX2R T135A; IP accumulation): 0.58 µM | Emax (OX2R T135A; relative to OX2R WT/TAK-925): 90 | activation at 100 µM (OX1R A127T; 0.75 h, TAK-925 conc (log, M) -4.00): 109% | activation at 33.1 µM (OX1R A127T; 0.75 h, TAK-925 conc (log, M) -4.48): 92.5% | activation at 11.2 µM (OX1R A127T; 0.75 h, TAK-925 conc (log, M) -4.95): 78.5% | activation at 3.72 µM (OX1R A127T; 0.75 h, TAK-925 conc (log, M) -5.43): 56% | activation at 1.23 µM (OX1R A127T; 0.75 h, TAK-925 conc (log, M) -5.91): 27.7% | activation at 0.407 µM (OX1R A127T; 0.75 h, TAK-925 conc (log, M) -6.39): 18.7% | activation at 0.0457 µM (OX1R A127T; 0.75 h, TAK-925 conc (log, M) -7.34): 12% | activation at 0.0151 µM (OX1R A127T; 0.75 h, TAK-925 conc (log, M) -7.82): 13.1% | activation at 0.0017 µM (OX1R A127T; 0.75 h, TAK-925 conc (log, M) -8.77): 0% | EC50 (OX1R A127T; IP accumulation): 4.7 µM | % IP accumulation (OX1R A127T; TAK-925 conc (log, M) -8.77): 0.00% | Emax (OX1R A127T; relative to OX1R S103T/A127T/TAK-925): 100 | EC50 (OX2R Q187A): 3.2 µM | EC50 (OX2R K327A): 2.3 µM | EC50 (OX2R H350A): 4.8 µM | EC50 (OX2R V353A): 5.5 µM | wakefulness and sleep time (wakefulness): dose-dependent increase in wakefulness and reduction in sleep time
